Values quoted from earlier work, collected in patent publication US7255813B2, “NADH/NADPH-containing compound” (Nutropia Ernahrungsmedizinische Forschungs GmbH, priority 2002, dated 2007).

Conditions: versus synthetic tocopherols

Substance: tocotrienol
- antioxidative potential, times higher than that of synthetic tocopherols: 50 to 1000 times
